The text below walks through data of PMC12121777 (PLOS One, 2025).

Structures are written as SMILES. Converted amounts (≈) assume the structure as drawn. Like-named read-outs stand apart in the source and are kept apart here.

What all share (assay): microbe, parasite or virus in culture
Assay type in all cases: cell-based

One assay concerns Mtb Praha 1. Particulars: Mycobacterium tuberculosis, read-out: MIC Mtb Praha 1.
Another assay has as its system Mtb Praha 4. The note with it: Mycobacterium tuberculosis, read-out: MIC Mtb Praha 4.
The subject of the next assay is Mtb Praha 131. The note with it: Mycobacterium tuberculosis, read-out: MIC Mtb Praha 131.
The test system of a further assay is Mtb 234/2005. The note with it: Mycobacterium tuberculosis, read-out: MIC Mtb 234/2005.
Another assay deals with Mtb 9449/2007. The note with it: Mycobacterium tuberculosis, read-out: MIC Mtb 9449/2007.
The next assay deals with Mtb 7357/1998. Particulars: Mycobacterium tuberculosis, read-out: MIC Mtb 7357/1998.
A further assay relates to Mtb 8666/2010. Particulars: Mycobacterium tuberculosis, read-out: MIC Mtb 8666/2010.

For `CCCCCCNc1nnc(-c2cc([N+](=O)[O-])cc([N+](=O)[O-])c2)o1` [Compound 5f, 5-(3,5-Dinitrophenyl)-N-hexyl-1,3,4-oxadiazol-2-amine], the MIC was not above 0.03 µM with Mtb Praha 1 (PRAHA1, 336 h); not above 0.03 µM in the assay with Mtb Praha 1 (PRAHA1, 504 h); not above 0.03 µM in the assay with Mtb Praha 4 (PRAHA4, 336 h); not above 0.03 µM in the assay with Mtb Praha 4 (PRAHA4, 504 h); not above 0.03 µM in the assay with Mtb Praha 131 (PRAHA131, 336 h); not above 0.03 µM with Mtb Praha 131 (PRAHA131, 504 h). Also, the MIC was not above 0.03 µM in the assay with Mtb 234/2005 (234/2005, 336 h); not above 0.03 µM in the assay on Mtb 234/2005 (234/2005, 504 h); not above 0.03 µM in the assay with Mtb 9449/2007 (9449/2007, 336 h); not above 0.03 µM in the assay on Mtb 9449/2007 (9449/2007, 504 h); not above 0.03 µM in the assay with Mtb 7357/1998 (7357/1998, 336 h); not above 0.03 µM in the assay with Mtb 7357/1998 (7357/1998, 504 h). The MIC with Mtb 8666/2010 (8666/2010, 336 h) is not above 0.03 µM; with Mtb 8666/2010 (8666/2010, 504 h) it was not above 0.03 µM.

In the case of `CCCCCCCNc1nnc(-c2cc([N+](=O)[O-])cc([N+](=O)[O-])c2)o1` [Compound 5g, 5-(3,5-Dinitrophenyl)-N-heptyl-1,3,4-oxadiazol-2-amine], the MIC in the assay with Mtb Praha 1 (PRAHA1, 336 h) came out at 0.06 µM (≈ 0.021 µg/mL); in the assay with Mtb Praha 1 (PRAHA1, 504 h) it was 0.06 µM (≈ 0.021 µg/mL); in the assay on Mtb Praha 4 (PRAHA4, 336 h), 0.06 µM (≈ 0.021 µg/mL); in the assay with Mtb Praha 4 (PRAHA4, 504 h), 0.06 µM (≈ 0.021 µg/mL); in the assay with Mtb Praha 131 (PRAHA131, 336 h), 0.06 µM (≈ 0.021 µg/mL); in the assay with Mtb Praha 131 (PRAHA131, 504 h), 0.06 µM (≈ 0.021 µg/mL). Also, the MIC in the assay on Mtb 234/2005 (234/2005, 336 h) is 0.06 µM (≈ 0.021 µg/mL); in the assay with Mtb 234/2005 (234/2005, 504 h), 0.06 µM (≈ 0.021 µg/mL); with Mtb 9449/2007 (9449/2007, 336 h), not above 0.03 µM; in the assay on Mtb 9449/2007 (9449/2007, 504 h), 0.06 µM (≈ 0.021 µg/mL); in the assay with Mtb 7357/1998 (7357/1998, 336 h), 0.06 µM (≈ 0.021 µg/mL); in the assay on Mtb 7357/1998 (7357/1998, 504 h) it was 0.06 µM (≈ 0.021 µg/mL). Moreover, the MIC was not above 0.03 µM in the assay with Mtb 8666/2010 (8666/2010, 336 h) and 0.06 µM (≈ 0.021 µg/mL) in the assay with Mtb 8666/2010 (8666/2010, 504 h).

Regarding `CCCCCCCCNc1nnc(-c2cc([N+](=O)[O-])cc([N+](=O)[O-])c2)o1` [Compound 5h, 5-(3,5-Dinitrophenyl)-N-octyl-1,3,4-oxadiazol-2-amine], the MIC is 0.125 µM (≈ 0.0454 µg/mL) in the assay with Mtb Praha 1 (PRAHA1, 336 h); 0.125 µM (≈ 0.0454 µg/mL) in the assay with Mtb Praha 1 (PRAHA1, 504 h); 0.125 µM (≈ 0.0454 µg/mL) with Mtb Praha 4 (PRAHA4, 336 h); 0.125 µM (≈ 0.0454 µg/mL) in the assay with Mtb Praha 4 (PRAHA4, 504 h); 0.125 µM (≈ 0.0454 µg/mL) in the assay with Mtb Praha 131 (PRAHA131, 336 h); 0.125 µM (≈ 0.0454 µg/mL) in the assay with Mtb Praha 131 (PRAHA131, 504 h). Further, the MIC in the assay on Mtb 234/2005 (234/2005, 336 h) turned out to be 0.125 µM (≈ 0.0454 µg/mL); with Mtb 234/2005 (234/2005, 504 h), 0.125 µM (≈ 0.0454 µg/mL); with Mtb 9449/2007 (9449/2007, 336 h) it was 0.06 µM (≈ 0.0218 µg/mL); with Mtb 9449/2007 (9449/2007, 504 h) it was 0.125 µM (≈ 0.0454 µg/mL); in the assay with Mtb 7357/1998 (7357/1998, 336 h), 0.125 µM (≈ 0.0454 µg/mL); with Mtb 7357/1998 (7357/1998, 504 h) it was 0.125 µM (≈ 0.0454 µg/mL). The MIC in the assay on Mtb 8666/2010 (8666/2010, 336 h) amounted to 0.06 µM (≈ 0.0218 µg/mL); in the assay on Mtb 8666/2010 (8666/2010, 504 h), 0.125 µM (≈ 0.0454 µg/mL).

As to `CCCCCCCCCNc1nnc(-c2cc([N+](=O)[O-])cc([N+](=O)[O-])c2)o1` [Compound 5i, 5-(3,5-Dinitrophenyl)-N-nonyl-1,3,4-oxadiazol-2-amine], the MIC with Mtb Praha 1 (PRAHA1, 336 h) turned out to be 0.125 µM (≈ 0.0472 µg/mL); with Mtb Praha 1 (PRAHA1, 504 h), 0.125 µM (≈ 0.0472 µg/mL); with Mtb Praha 4 (PRAHA4, 336 h), 0.125 µM (≈ 0.0472 µg/mL); with Mtb Praha 4 (PRAHA4, 504 h), 0.125 µM (≈ 0.0472 µg/mL); with Mtb Praha 131 (PRAHA131, 336 h), 0.06 µM (≈ 0.0226 µg/mL); in the assay with Mtb Praha 131 (PRAHA131, 504 h), 0.06 µM (≈ 0.0226 µg/mL). The MIC in the assay with Mtb 234/2005 (234/2005, 336 h) turned out to be 0.125 µM (≈ 0.0472 µg/mL); in the assay on Mtb 234/2005 (234/2005, 504 h), 0.125 µM (≈ 0.0472 µg/mL); in the assay on Mtb 9449/2007 (9449/2007, 336 h), 0.06 µM (≈ 0.0226 µg/mL); in the assay with Mtb 9449/2007 (9449/2007, 504 h) it was 0.06 µM (≈ 0.0226 µg/mL); in the assay with Mtb 7357/1998 (7357/1998, 336 h) it was 0.125 µM (≈ 0.0472 µg/mL); with Mtb 7357/1998 (7357/1998, 504 h), 0.125 µM (≈ 0.0472 µg/mL). Further, the MIC in the assay with Mtb 8666/2010 (8666/2010, 336 h) was 0.06 µM (≈ 0.0226 µg/mL); in the assay with Mtb 8666/2010 (8666/2010, 504 h), 0.06 µM (≈ 0.0226 µg/mL).

Take `CCCCCCCCCCNc1nnc(-c2cc([N+](=O)[O-])cc([N+](=O)[O-])c2)o1` [Compound 5j, N-Decyl-5-(3,5-dinitrophenyl)-1,3,4-oxadiazol-2-amine]: the MIC in the assay with Mtb Praha 1 (PRAHA1, 336 h) came to 0.25 µM (≈ 0.0979 µg/mL); with Mtb Praha 1 (PRAHA1, 504 h), 0.5 µM (≈ 0.196 µg/mL); in the assay on Mtb Praha 4 (PRAHA4, 336 h), 0.25 µM (≈ 0.0979 µg/mL); with Mtb Praha 4 (PRAHA4, 504 h), 0.5 µM (≈ 0.196 µg/mL); with Mtb Praha 131 (PRAHA131, 336 h), 0.25 µM (≈ 0.0979 µg/mL); in the assay on Mtb Praha 131 (PRAHA131, 504 h) it was 0.5 µM (≈ 0.196 µg/mL). Also, the MIC was found to be 0.25 µM (≈ 0.0979 µg/mL) in the assay on Mtb 234/2005 (234/2005, 336 h); 0.5 µM (≈ 0.196 µg/mL) in the assay with Mtb 234/2005 (234/2005, 504 h); 0.25 µM (≈ 0.0979 µg/mL) in the assay on Mtb 9449/2007 (9449/2007, 336 h); 0.5 µM (≈ 0.196 µg/mL) in the assay with Mtb 9449/2007 (9449/2007, 504 h); 0.25 µM (≈ 0.0979 µg/mL) in the assay on Mtb 7357/1998 (7357/1998, 336 h); 0.5 µM (≈ 0.196 µg/mL) in the assay on Mtb 7357/1998 (7357/1998, 504 h). The MIC in the assay with Mtb 8666/2010 (8666/2010, 336 h) stood at 0.25 µM (≈ 0.0979 µg/mL); in the assay with Mtb 8666/2010 (8666/2010, 504 h) it was 0.5 µM (≈ 0.196 µg/mL).

`CCCCCCCCCCCNc1nnc(-c2cc([N+](=O)[O-])cc([N+](=O)[O-])c2)o1` [Compound 5k, 5-(3,5-Dinitrophenyl)-N-undecyl-1,3,4-oxadiazol-2-amine]: the MIC came out at 0.25 µM (≈ 0.101 µg/mL) in the assay with Mtb Praha 1 (PRAHA1, 336 h); 0.5 µM (≈ 0.203 µg/mL) with Mtb Praha 1 (PRAHA1, 504 h); 0.25 µM (≈ 0.101 µg/mL) in the assay with Mtb Praha 4 (PRAHA4, 336 h); 0.5 µM (≈ 0.203 µg/mL) in the assay with Mtb Praha 4 (PRAHA4, 504 h); 0.25 µM (≈ 0.101 µg/mL) with Mtb Praha 131 (PRAHA131, 336 h); 0.5 µM (≈ 0.203 µg/mL) with Mtb Praha 131 (PRAHA131, 504 h). For the same compound, the MIC with Mtb 234/2005 (234/2005, 336 h) stood at 0.25 µM (≈ 0.101 µg/mL); in the assay on Mtb 234/2005 (234/2005, 504 h), 0.5 µM (≈ 0.203 µg/mL); in the assay with Mtb 9449/2007 (9449/2007, 336 h), 0.25 µM (≈ 0.101 µg/mL); with Mtb 9449/2007 (9449/2007, 504 h), 0.5 µM (≈ 0.203 µg/mL); with Mtb 7357/1998 (7357/1998, 336 h), 0.25 µM (≈ 0.101 µg/mL); in the assay with Mtb 7357/1998 (7357/1998, 504 h), 0.5 µM (≈ 0.203 µg/mL). The MIC in the assay with Mtb 8666/2010 (8666/2010, 336 h) came to 0.25 µM (≈ 0.101 µg/mL); in the assay with Mtb 8666/2010 (8666/2010, 504 h) it was 0.5 µM (≈ 0.203 µg/mL).
